Test results as given in patent US11773078B2, “Furin inhibitors” (Glaxosmithkline Intellectual Property Development Limited, priority 2018, dated 2023).

Tests used:
[1] = biological target: T1, Furin (108-574-Tev-Flag-His) enzyme (Homo sapiens, UniProt P09958); assay: Furin enzyme assay; type: biochemical
T1 construct: Furin (108-574-Tev-Flag-His) enzyme was expressed and purified from CHO cells; TEV cleavage site (C); FLAG (C); His (C); made in house; host or cells: CHO cells
How it was run: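 Compounds ran as 11-point threefold dilutions (0.00017–10 μM final) against 40 pM furin, purified from CHO cells, for 2 h at room temperature. Buffer: 100 mM HEPES pH7.5 with 1 mM CaCl2 and 0.005% Triton X-100. Envision readout. Four-parameter curve gives pXC50.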

[2] = biological target: T2, furin (endogenous protease) in U20S cells (Homo sapiens, UniProt P09958); assay: Furin cell-based assay (image-based, Golgi-targeted GFP with BMP10 furin/PCSK cleavage site); details: 24-hour incubation, read-out: furin golgi cell pXC50 (converted);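 further: Read-out is mean GFP fluorescence of Golgi puncta per cell by high-content imaging, retained when furin inhibited, over an eleven-point 0.00017–10 µM series, four-parameter fit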
T2 construct: the endogenous protease cleaves GFP; endogenous in cells; host or cells: U2OS cells transduced with a BacMam reporter
T2 sequence (P09958 108-794): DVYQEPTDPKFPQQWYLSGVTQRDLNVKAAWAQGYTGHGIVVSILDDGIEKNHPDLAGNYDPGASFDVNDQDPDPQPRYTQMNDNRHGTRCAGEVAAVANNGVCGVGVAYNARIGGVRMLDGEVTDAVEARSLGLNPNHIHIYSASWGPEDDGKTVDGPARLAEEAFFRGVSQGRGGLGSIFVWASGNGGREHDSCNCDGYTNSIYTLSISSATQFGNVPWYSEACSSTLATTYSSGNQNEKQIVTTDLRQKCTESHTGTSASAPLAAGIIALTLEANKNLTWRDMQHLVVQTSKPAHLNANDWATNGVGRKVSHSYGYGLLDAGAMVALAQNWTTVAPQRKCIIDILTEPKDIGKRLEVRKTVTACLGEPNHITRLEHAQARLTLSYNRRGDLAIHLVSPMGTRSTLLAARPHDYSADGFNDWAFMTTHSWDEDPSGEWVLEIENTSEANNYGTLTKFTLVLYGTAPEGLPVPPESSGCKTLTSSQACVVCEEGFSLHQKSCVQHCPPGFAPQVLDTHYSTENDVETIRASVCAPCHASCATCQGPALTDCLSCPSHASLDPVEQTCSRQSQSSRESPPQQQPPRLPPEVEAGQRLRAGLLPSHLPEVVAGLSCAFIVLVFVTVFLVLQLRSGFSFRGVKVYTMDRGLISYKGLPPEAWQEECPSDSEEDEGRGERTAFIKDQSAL

T1 sequence (P09958 108-574): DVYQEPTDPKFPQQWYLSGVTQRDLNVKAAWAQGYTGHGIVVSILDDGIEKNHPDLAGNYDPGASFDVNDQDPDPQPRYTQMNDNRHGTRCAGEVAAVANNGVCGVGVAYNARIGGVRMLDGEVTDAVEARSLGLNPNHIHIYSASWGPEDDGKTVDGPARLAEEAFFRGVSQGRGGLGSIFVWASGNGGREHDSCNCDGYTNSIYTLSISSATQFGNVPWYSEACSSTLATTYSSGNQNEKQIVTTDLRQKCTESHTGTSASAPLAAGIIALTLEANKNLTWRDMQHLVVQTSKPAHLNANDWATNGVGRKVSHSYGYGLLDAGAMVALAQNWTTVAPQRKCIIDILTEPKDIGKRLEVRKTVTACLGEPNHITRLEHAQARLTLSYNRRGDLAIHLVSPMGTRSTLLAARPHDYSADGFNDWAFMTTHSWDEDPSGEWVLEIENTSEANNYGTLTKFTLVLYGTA

SMILES	furin enzyme pIC50 [1]	EC50 [2]	IC50 ([1]; read-out: furin enzyme pIC50 (converted))
CC(=O)NCC1CCN(Cc2cc(Oc3cnc(N4CCN(CC(C)C(=O)O)CC4)nc3)nc(-c3cc(Cl)cc(Cl)c3)c2)CC1 (stereo not drawn) [Example 283, 3-(4-(5-((4-((4-(acetamidomethyl)piperidin-1-yl)methyl)-6-(3,5-dichlorophenyl)pyridin-2-yl)oxy)pyrimidin-2-yl)piperazin-1-yl)-2-methylpropanoic acid]	9.1	25.1 nM	–
CC(=O)NCC1CCN(Cc2cc(Oc3cnc(N4CCN(CC(C)C(N)=O)CC4)nc3)nc(-c3cc(Cl)cc(Cl)c3)c2)CC1 (stereo not drawn) [Example 284, 3-(4-(5-((4-((4-(acetamidomethyl)piperidin-1-yl)methyl)-6-(3,5-dichlorophenyl)pyridin-2-yl)oxy)pyrimidin-2-yl)piperazin-1-yl)-2-methylpropanamide]	10.1	1.26 nM	–
CC(=O)NCC1CCN(Cc2cc(Oc3cnc(N4CCN(CCS(C)(=O)=O)CC4)nc3)nc(-c3cc(Cl)cc(Cl)c3)c2)CC1 [Example 285, N-((1-((2-(3,5-dichlorophenyl)-6-((2-(4-(2-(methylsulfonyl)ethyl)piperazin-1-yl)pyrimidin-5-yl)oxy)pyridin-4-yl)methyl)piperidin-4-yl)methyl)acetamide]	8.1	63.1 nM	–
CCC(CN1CCN(c2ccc(Oc3cc(CN4CCC(CNC(C)=O)CC4)cc(-c4cc(Cl)cc(Cl)c4)n3)cn2)CC1)C(=O)O (stereo not drawn) [Example 288, 2-((4-(5-((4-((4-(acetamidomethyl)piperidin-1-yl)methyl)-6-(3,5-dichlorophenyl)pyridin-2-yl)oxy)pyridin-2-yl)piperazin-1-yl)methyl)butanoic acid]	9.4	50.1 nM	–
CNC(=O)NCC1CCN(Cc2cc(Oc3cnc(N4CCN(CC(C)C(N)=O)CC4)nc3)nc(-c3cc(Cl)cc(Cl)c3)c2)CC1 (stereo not drawn) [Example 291, 3-(4-(5-((6-(3,5-dichlorophenyl)-4-((4-((3-methylureido)methyl)piperidin-1-yl)methyl)pyridin-2-yl)oxy)pyrimidin-2-yl)piperazin-1-yl)-2-methylpropanamide]	10.7	7.94 nM	–

Further lines, results first:

furin enzyme pIC50 [1]	EC50 [2]	IC50 ([1]; read-out: furin enzyme pIC50 (converted))	SMILES
9.4	7.94 nM	–	CC(=O)NCC1CCN(Cc2cc(Oc3cnc(N4CCN(CCS(N)(=O)=O)CC4)nc3)nc(-c3cc(Cl)cc(Cl)c3)c2)CC1 [Example 286, N-((1-((2-(3,5-dichlorophenyl)-6-((2-(4-(2-sulfamoylethyl)piperazin-1-yl)pyrimidin-5-yl)oxy)pyridin-4-yl)methyl)piperidin-4-yl)methyl)acetamide]
–	631 nM	2 nM	CC(=O)NCC1CCN(Cc2cc(Oc3ccc(N4CCN(CCS(=O)(=O)O)CC4)nc3)nc(-c3cc(Cl)cc(Cl)c3)c2)CC1 [Example 287, 2-(4-(5-((4-((4-(acetamidomethyl)piperidin-1-yl)methyl)-6-(3,5-dichlorophenyl)pyridin-2-yl)oxy)pyridin-2-yl)piperazin-1-yl)ethanesulfonic acid]
8.6	5.01 nM	–	CC(=O)NCC1CCN(Cc2cc(Oc3ccc(N4CCN(CCS(N)(=O)=O)CC4)nc3)nc(-c3cc(Cl)cc(Cl)c3)c2)CC1 [Example 289, N-((1-((2-(3,5-dichlorophenyl)-6-((6-(4-(2-sulfamoylethyl)piperazin-1-yl)pyridin-3-yl)oxy)pyridin-4-yl)methyl)piperidin-4-yl)methyl)acetamide]
8.2	15.8 nM	–	CNC(=O)NCC1CCN(Cc2cc(Oc3ccc(N4CCN(CCS(C)(=O)=O)CC4)nc3)nc(-c3cc(Cl)cc(Cl)c3)c2)CC1 [Example 290, 1-((1-((2-(3,5-dichlorophenyl)-6-((6-(4-(2-(methylsulfonyl)ethyl)piperazin-1-yl)pyridin-3-yl)oxy)pyridin-4-yl)methyl)piperidin-4-yl)methyl)-3-methylurea]
